Our source for the Ki values is BindingDB's records for doi:10.1021/jm8010993.

What all share (experiment): PDE4 Enzyme Assay
Details in all cases: pH 8; 34 °C

For assay [1], the target named is cAMP-specific 3',5'-cyclic phosphodiesterase 4A (Homo sapiens, UniProt P27815). As to the method:
(§1) The samples were assayed in a solution composed of PDE4, [3H]cAMP/cAMP, and test compounds. To convert AMP to adenosine, snake venom was added to each sample after reactions were stopped. The reaction products were separated by anion-exchange chromatography performed on AGl-X8 resin, and the amount of unbound [3H] adenosine was collected and quantified by scintillation counting.

Assay [2] concerns the target cAMP-specific 3',5'-cyclic phosphodiesterase 4B (Homo sapiens, UniProt Q07343). As for the experimental part:
as §1

Assay [3] concerns the target cAMP-specific 3',5'-cyclic phosphodiesterase 4D (Homo sapiens, UniProt Q08499). As for the experimental part: as §1

cAMP-specific 3',5'-cyclic phosphodiesterase 4B, sequence (Q07343 whole entry): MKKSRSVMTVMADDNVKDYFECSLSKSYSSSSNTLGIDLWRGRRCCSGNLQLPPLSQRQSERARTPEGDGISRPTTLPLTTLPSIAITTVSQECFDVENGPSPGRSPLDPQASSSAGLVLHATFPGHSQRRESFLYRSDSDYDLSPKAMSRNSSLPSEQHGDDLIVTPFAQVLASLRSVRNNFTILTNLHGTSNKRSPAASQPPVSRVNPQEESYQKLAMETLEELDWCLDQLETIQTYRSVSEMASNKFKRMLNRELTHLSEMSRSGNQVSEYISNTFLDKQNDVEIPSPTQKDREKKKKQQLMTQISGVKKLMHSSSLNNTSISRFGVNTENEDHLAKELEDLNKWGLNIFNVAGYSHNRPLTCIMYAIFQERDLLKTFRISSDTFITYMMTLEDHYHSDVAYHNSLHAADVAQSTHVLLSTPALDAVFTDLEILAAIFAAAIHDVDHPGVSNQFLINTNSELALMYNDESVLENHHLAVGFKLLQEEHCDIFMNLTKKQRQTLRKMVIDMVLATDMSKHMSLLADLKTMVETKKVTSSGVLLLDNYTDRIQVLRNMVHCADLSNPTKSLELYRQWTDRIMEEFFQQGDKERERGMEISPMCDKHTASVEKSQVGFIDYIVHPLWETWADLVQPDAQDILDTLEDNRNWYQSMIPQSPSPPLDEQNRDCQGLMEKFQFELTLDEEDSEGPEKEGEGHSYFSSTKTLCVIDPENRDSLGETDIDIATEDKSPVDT
cAMP-specific 3',5'-cyclic phosphodiesterase 4A, sequence (P27815 whole entry): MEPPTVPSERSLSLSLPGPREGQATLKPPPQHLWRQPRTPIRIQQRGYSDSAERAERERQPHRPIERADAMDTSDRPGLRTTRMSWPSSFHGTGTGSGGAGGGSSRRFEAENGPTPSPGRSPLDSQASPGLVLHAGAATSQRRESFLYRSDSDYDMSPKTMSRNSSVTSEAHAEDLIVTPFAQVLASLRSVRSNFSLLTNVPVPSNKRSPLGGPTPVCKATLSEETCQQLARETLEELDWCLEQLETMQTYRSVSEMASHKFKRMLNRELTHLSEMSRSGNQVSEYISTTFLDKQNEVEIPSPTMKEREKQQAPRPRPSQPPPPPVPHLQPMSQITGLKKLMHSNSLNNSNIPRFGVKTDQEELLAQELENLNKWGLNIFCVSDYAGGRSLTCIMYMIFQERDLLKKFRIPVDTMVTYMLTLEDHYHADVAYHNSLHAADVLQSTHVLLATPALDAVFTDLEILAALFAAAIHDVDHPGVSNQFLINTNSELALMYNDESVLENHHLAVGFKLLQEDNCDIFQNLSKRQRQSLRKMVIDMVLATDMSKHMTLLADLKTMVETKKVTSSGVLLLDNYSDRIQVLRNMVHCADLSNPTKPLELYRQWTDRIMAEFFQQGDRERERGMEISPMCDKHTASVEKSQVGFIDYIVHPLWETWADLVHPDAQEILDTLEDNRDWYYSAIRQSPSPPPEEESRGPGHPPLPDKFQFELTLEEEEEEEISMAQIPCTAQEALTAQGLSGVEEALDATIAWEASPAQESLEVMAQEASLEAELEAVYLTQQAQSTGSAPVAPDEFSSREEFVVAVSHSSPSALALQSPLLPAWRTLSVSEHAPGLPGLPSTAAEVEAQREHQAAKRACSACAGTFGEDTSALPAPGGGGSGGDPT
cAMP-specific 3',5'-cyclic phosphodiesterase 4D, sequence (Q08499 whole entry): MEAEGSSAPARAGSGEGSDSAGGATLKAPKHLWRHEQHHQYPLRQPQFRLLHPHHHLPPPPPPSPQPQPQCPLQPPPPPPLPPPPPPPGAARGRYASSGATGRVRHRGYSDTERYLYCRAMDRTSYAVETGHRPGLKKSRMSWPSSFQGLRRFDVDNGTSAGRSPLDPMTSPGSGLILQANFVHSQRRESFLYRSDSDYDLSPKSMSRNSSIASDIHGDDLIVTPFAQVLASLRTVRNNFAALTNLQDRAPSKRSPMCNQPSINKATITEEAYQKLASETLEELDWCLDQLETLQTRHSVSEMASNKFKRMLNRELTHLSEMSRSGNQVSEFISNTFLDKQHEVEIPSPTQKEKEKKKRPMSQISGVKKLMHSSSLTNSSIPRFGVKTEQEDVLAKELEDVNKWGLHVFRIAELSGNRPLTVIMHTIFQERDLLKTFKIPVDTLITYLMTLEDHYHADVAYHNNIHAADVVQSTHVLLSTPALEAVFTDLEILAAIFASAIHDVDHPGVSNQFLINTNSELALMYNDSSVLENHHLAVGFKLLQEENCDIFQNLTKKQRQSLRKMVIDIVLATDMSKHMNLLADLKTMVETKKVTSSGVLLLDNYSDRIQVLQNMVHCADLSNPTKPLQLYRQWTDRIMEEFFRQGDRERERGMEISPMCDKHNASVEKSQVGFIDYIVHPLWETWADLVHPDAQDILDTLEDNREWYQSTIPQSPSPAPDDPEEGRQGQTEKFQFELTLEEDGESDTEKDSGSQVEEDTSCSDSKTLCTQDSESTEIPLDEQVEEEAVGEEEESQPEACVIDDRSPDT

Usually Ki stands for the dissociation constant of the complex between target and ligand, obtained from inhibition or displacement. In the case of `COc1ccc(F)c(CCC2CCC(CCNCCCCCN3N=C(c4ccc(OC)c(OC)c4)C4CC=CCC4C3=O)O2)c1` (stereo not drawn) [phthalazinone, 21], the values for the Ki in assay [1], in assay [2] and in assay [3] were more than 1000 nM, 199 nM and 2 nM, respectively.
